In ChEMBL document CHEMBL6083179, “Glucagon-like peptide-1 analogs: Miracle drugs are blooming?” (Eur J Med Chem, 2024):
Values belong to the compound of their own block, whether it stands above or below them.

Legend:
[1] = target: T1, Glucagon-1 (Xenopus laevis, UniProt O42143); assay: Inhibition of Xenopus laevis GLP-1A (1 to 37 residues)
T1 sequence (O42143 whole entry): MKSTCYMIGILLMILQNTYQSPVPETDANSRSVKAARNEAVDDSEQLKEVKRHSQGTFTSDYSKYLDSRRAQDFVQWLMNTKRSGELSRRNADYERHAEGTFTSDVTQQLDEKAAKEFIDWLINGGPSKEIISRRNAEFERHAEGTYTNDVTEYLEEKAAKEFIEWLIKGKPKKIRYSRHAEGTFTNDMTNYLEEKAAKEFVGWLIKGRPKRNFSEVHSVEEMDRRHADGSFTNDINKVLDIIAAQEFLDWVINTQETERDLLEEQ

[2] = target: T1, Glucagon-1; assay: Inhibition of Xenopus laevis GLP-1B (1 to 32 residues)
[3] = target: T1, Glucagon-1; assay: Inhibition of Xenopus laevis GLP-1C (1 to 30 residues)
[4] = Inhibition of Ornithorhynchus anatinus GLP-1

Compound: CC[C@H](C)[C@H](NC(=O)[C@H](CC(C)C)NC(=O)[C@H](Cc1c[nH]c2ccccc12)NC(=O)[C@H](CCC(=O)O)NC(=O)[C@@H](NC(=O)[C@H](Cc1ccccc1)NC(=O)[C@H](CCC(=O)O)NC(=O)[C@H](CCCCN)NC(=O)[C@H](C)NC(=O)[C@H](C)NC(=O)[C@H](CCCCN)NC(=O)[C@H](CCC(=O)O)NC(=O)[C@H](CCC(=O)O)NC(=O)[C@H](CC(C)C)NC(=O)[C@H](Cc1ccc(O)cc1)NC(=O)[C@H](CCC(=O)O)NC(=O)[C@@H](NC(=O)[C@@H](NC(=O)[C@H](CC(=O)O)NC(=O)[C@H](CC(N)=O)NC(=O)[C@@H](NC(=O)[C@H](Cc1ccc(O)cc1)NC(=O)[C@@H](NC(=O)CNC(=O)[C@H](CCC(=O)O)NC(=O)[C@H](C)NC(=O)[C@@H](N)Cc1c[nH]cn1)[C@@H](C)O)[C@@H](C)O)C(C)C)[C@@H](C)O)[C@@H](C)CC)C(=O)N[C@@H](CCCCN)C(=O)NCC(=O)N[C@@H](CCCCN)C(=O)N1CCC[C@H]1C(=O)N[C@@H](CCCCN)C(=O)O
IC50 [2]: 2.9 nM

Compound: H-HAEGTFTNDMTNYLEEKAAKEFVGWLIKGRPK-OH
IC50 [3]: 43.4 nM

Compound: H-HFDGVYTDYFSRYLEEKATNEFIDWLLKGQE-OH
IC50 [4]: 7.4 nM

Now from value to compound:

IC50 [1]: 12.7 nM
Compound: CC[C@H](C)[C@H](NC(=O)[C@H](CC(C)C)NC(=O)[C@H](Cc1c[nH]c2ccccc12)NC(=O)[C@H](CC(=O)O)NC(=O)[C@@H](NC(=O)[C@H](Cc1ccccc1)NC(=O)[C@H](CCC(=O)O)NC(=O)[C@H](CCCCN)NC(=O)[C@H](C)NC(=O)[C@H](C)NC(=O)[C@H](CCCCN)NC(=O)[C@H](CCC(=O)O)NC(=O)[C@H](CC(=O)O)NC(=O)[C@H](CC(C)C)NC(=O)[C@H](CCC(N)=O)NC(=O)[C@H](CCC(N)=O)NC(=O)[C@@H](NC(=O)[C@@H](NC(=O)[C@H](CC(=O)O)NC(=O)[C@H](CO)NC(=O)[C@@H](NC(=O)[C@H](Cc1ccccc1)NC(=O)[C@@H](NC(=O)CNC(=O)[C@H](CCC(=O)O)NC(=O)[C@H](C)NC(=O)[C@@H](N)Cc1c[nH]cn1)[C@@H](C)O)[C@@H](C)O)C(C)C)[C@@H](C)O)[C@@H](C)CC)C(=O)N[C@@H](CC(N)=O)C(=O)NCC(=O)NCC(=O)N1CCC[C@H]1C(=O)N[C@@H](CO)C(=O)N[C@@H](CCCCN)C(=O)N[C@@H](CCC(=O)O)C(=O)N[C@H](C(=O)N[C@H](C(=O)N[C@@H](CO)C(=O)O)[C@@H](C)CC)[C@@H](C)CC

IC50 [4]: 7.4 nM
Compound: H-HSEGTFTNDVTRLLEEKATSEFIAWLLKGLE-OH
